Data as given in patent US11186581B2, “2-(1,3-dimethyl-2,6-dioxo-1,2,3,6-tetrahydro-7H-purin-7-yl)-N-(6-(2-hydroxyphenyl)pyridazin-3-yl)acetamide as a Wnt pathway modulator” (Agency for Science, Technology and Research, priority 2017, dated 2021).
Like-named read-outs stand apart in the source and are kept apart here.

Experiment: Plasma pharmacokinetics after single intravenous and oral dose
Format: in vivo, male BALB/c mice
Settings: male, BALB/c, mouse; for concentration at 24 hr: average of two values
Procedure: The objective of this study was to investigate the plasma pharmacokinetics of Compound 1 in male BALB/c mice following a single intravenous and oral dose administration. A group of eighteen male mice were divided in to two groups as Group 1 and Group 2 with nine mice in each group.
Animals in Group 1 were administered intravenously with Compound 1 solution formulation in 7.5% NMP, 5% Solutol HS-15 and 87.5% normal Saline at a dose of 1 mg/kg.
Animals in Group 2 were administered orally with Compound 1 solution formulation in 7.5% NMP, 5% Solutol HS-15 and 87.5% normal Saline at a dose of 5 mg/kg.
Blood samples (approximately 60 μL) were collected under light isoflurane anesthesia from retro orbital plexus at predose, 0.08, 0.25, 0.5, 1, 2, 4, 8 and 24 hr (IV) and predose, 0.25, 0.5, 1, 2, 4, 6, 8 and 24 hr (PO). During each sampling point, blood samples were collected in labeled pre-chilled tubes containing K2EDTA (20% K2EDTA solution) as an anticoagulant and protease inhibitor (10 μL of 10× solution/100 μL of blood). Low temperature was maintained till storage of plasma at −70° C. Plasma samples were separated by centrifugation of whole blood and stored below −70° C. until bioanalysis. All samples were processed for analysis by protein precipitation using acetonitrile (ACN) and analyzed with fit-for-purpose LC/MS/MS method (Lower limit of quantitation (LLOQ: 1.02 ng/mL). Pharmacokinetic parameters were calculated using the non-compartmental analysis tool of Phoenix WinNonlin® (Version 6.3). The overall pharmacokinetic parameters are summarized below:
The objective of the study is to determine the plasma pharmacokinetics of Compound 1 in male BALB/c mice following a single intravenous (1 mg/kg) and oral (5 mg/kg) administration in presence of a protease inhibitor.
A group of eighteen male mice were divided in to two groups as Group 1 and Group 2 with nine mice in each group. Animals in Group 1 were administered intravenously with Compound 1 solution formulation in 7.5% NMP, 5% Solutol HS-15 and 87.5% normal Saline at a dose of 1 mg/kg. Animals in Group 2 were administered orally with Compound 1 solution formulation in 7.5% NMP, 5% Solutol HS and 87.5% normal Saline at a dose of 5 mg/kg.
The dosing volume administered was 5 mL/kg for intravenous and 10 mL/kg for oral administration.
Blood samples (approximately 60 μL) were collected from retro-orbital plexus of three mice at each time point [predose, 0.08, 0.25, 0.5, 1, 2, 4, 8 and 24 hr (IV) and predose, 0.25, 0.5, 1, 2, 4, 6, 8 and 24 hr (PO)]. During each sampling point, blood samples were collected in labeled pre-chilled tubes containing K2EDTA (20% K2EDTA solution) as an anticoagulant and protease inhibitor (10 μL of 10× solution/100 μL of blood). Low temperature was maintained till storage of plasma at −70° C. Plasma was immediately harvested from the blood by centrifugation at 4000 rpm for 10 min at 4±2° C. and stored below −70° C. until bioanalysis. Preparation of protease inhibitor solution: One tablet of sigmaFAST (Product Code: 58820) was reconstituted into 10 mL of Milli-Q water to prepare 10× solution.
Concentrations of Compound 1 in mouse plasma samples were determined by fit-for-purpose LC-MS/MS method. The sample processing and extraction procedure, chromatographic and mass spectrometric conditions are provided below:
A 25 μL of study sample (DF was applied for few samples) or spiked plasma calibration standard was added to individual pre-labeled micro-centrifuge tubes followed by 100 μL of internal standard prepared in acetonitrile (Glipizide, 500 ng/mL) was added except for blank, where 100 μL of acetonitrile was added. Samples were vortexed for 5 minutes. Samples were centrifuged for 10 minutes at a speed of 4000 rpm at 4° C. Following centrifugation, 100 μL of clear supernatant was transferred in 96 well plates and analyzed using LC-MS/MS.
Non-Compartmental-Analysis tool of Phoenix WinNonlin® (Version 6.3) was used to assess the pharmacokinetic parameters. […]

[1] = plasma, iv, 1 mg/kg, IV 1 mg/kg, read-out: Plasma concentration, individual animals
[2] = plasma, iv, 1 mg/kg, IV 1 mg/kg, read-out: Plasma concentration, Mean
[3] = plasma, po, 5 mg/kg, PO 5 mg/kg, read-out: Plasma concentration, Mean
[4] = plasma, po, 5 mg/kg, PO 5 mg/kg, read-out: Plasma concentration, individual animals

Work on `Cn1c(=O)c2c(ncn2CC(=O)Nc2ccc(-c3ccccc3O)nn2)n(C)c1=O` [Compound 1, 2-(1,3-dimethyl-2,6-dioxo-1,2,3,6-tetrahydro-7H-purin-7-yl)-N-(6-(2-hydroxyphenyl)pyridazin-3-yl)acetamide] yielded a concentration at 2 hr [1] of 42.5 ng/mL, a concentration at 4 hr [2] of 34.7 ng/mL and a concentration at 4 hr [1] of 39.2 ng/mL. It also gave a concentration at 8 hr [2] of 14.5 ng/mL, a concentration at 24 hr (plasma, iv, 1 mg/kg, IV 1 mg/kg) of 1.23 ng/mL and a concentration at 0.25 hr [3] of 1860 ng/mL. For the same compound, the concentration at 0.25 hr [4] was 1690 ng/mL, the concentration at 0.5 hr (plasma, po, 5 mg/kg, PO 5 mg/kg, 0.5 hr, read-out: Plasma concentration, Mean) was 1710 ng/mL and the concentration at 1 hr [3] was 457 ng/mL. It also gave a concentration at 1 hr [4] of 462 ng/mL, a concentration at 2 hr [3] of 411 ng/mL and a concentration at 2 hr [4] of 535 ng/mL. For the same compound, the concentration at 4 hr [3] was 217 ng/mL, the concentration at 6 hr [3] was 91.8 ng/mL and the concentration at 6 hr [4] was 83.2 ng/mL. The concentration at 8 hr [3] was 45.8 ng/mL, the concentration at 8 hr [4] was 43 ng/mL and the concentration at 24 hr (plasma, po, 5 mg/kg, PO 5 mg/kg) was 1.8 ng/mL. For the same compound, the half-life (plasma, IV 1 mg/kg, terminal elimination half-life, read-out: T1/2 (converted)) was 4.24 h, the Vd (plasma, IV 1 mg/kg, read-out: Vss) was 1.2 L/kg and the Tmax (plasma, PO 5 mg/kg) was 0.25 h. The bioavailability (plasma, PO 5 mg/kg vs IV 1 mg/kg, solution, from AUClast, read-out: % F (oral bioavailability)) was 42%, the half-life (plasma, PO 5 mg/kg, read-out: T1/2 (expressed as T1/2Z) (converted)) was 3.26 h and the AUC(0-inf) (IV 1 mg/kg, plasma) was 1490 ng·h/mL. The AUC(0-t) (IV 1 mg/kg, plasma) was 1480 ng·h/mL, the clearance (IV 1 mg/kg, plasma clearance) was 11.2 mL/min/kg and the C0 (IV 1 mg/kg, plasma, read-out: C0 (back extrapolated conc.)) was 2750 ng/mL. It also gave an AUC(0-inf) (PO 5 mg/kg, plasma) of 3120 ng·h/mL, an AUC(0-t) (PO 5 mg/kg, plasma) of 3110 ng·h/mL and a Cmax (PO 5 mg/kg, plasma) of 1860 ng/mL.
